# According to US20010051602A1, “Methods for increasing ApoE levels for the treatment of neurodegenerative disease” (priority 1997, published 2001):
# Several values for one entry are separate records, joined by “and”; a condition that tells them apart may be missing. Identical values can stand only once.
# Tests used:
# [1] = test system: Alzheimer's disease; assay: clinical trial: ADAS-Cog (extended 117 point scale); assay type: in vivo, human
# Experimental: Neuropsychological Assessment: The Alzheimer's Disease Assessment Scale, Cognitive Part (ADAS-Cog) (see Rosen et al., Am. J. Psychiatr., 141:1356-1364 (1984)) was used as an objective neuropsychological measure. It consists of a battery of neuropsychological tests for different cognitive functions. The battery comes to a single score with a maximum of 70 points and is administered in about 45 minutes to patients. A 117 point extended scale version of this test was also used (see Table 5). The extended 117 pt. […] The scoring method for this modified ADAS-Cog test ranges from 0 […].
# [2] = test system: β-amyloid protein (1-40); assay: clinical trial: CSF total β-amyloid (1-40); assay type: in vivo, human
# Excerpt: Biological Markers: Additional biochemical markers included phenotyping of the patients ApoE and determining relative concentrations of tau protein, P-amyloid protein (1-42 and 1-40); and relative extent of lipid peroxidation.
# Tables 11 and 12 summarize the changes in total β-amyloid protein (1-40 and 1-42) at one month, as a percentage of the baseline values.
# [3] = test system: ApoE; assay: ApoE in medium of rat primary type 1 astrocyte cultures exposed to probucol, immunoblot; assay type: cell-based
# Experimental: Apo E concentration was assessed in the cell culture medium by immunoblot analysis using methods previously described (Poirier et al., Neuroscience, 55:81-90 (1993)). In the absence of probucol (EtOH control) very little ApoE is detected in the media (i.e., the extracellular compartment). […] We also observed that the amount of ApoE detected in the media at 48 hours was less than the amount of ApoE in the media after only 24 hours of incubation. This time-dependent response in ApoE levels may reflect the continued division and growth of cells.
# [4] = test system: Alzheimer's disease; assay: clinical trial: Global Deterioration Scale; assay type: in vivo, human; parameters: Global Deterioration Scale, 3 months / Global Deterioration Scale, 6 months / Global Deterioration Scale, 3 months, Average / Global Deterioration Scale, 6 months, Average: scale not given here
# Experimental: Neuropsychological Assessment: The Clinical Impression of Change (CIBIC-Plus) and the Global Deterioration Scale (GDS) were recorded at 3 and 6 months. The Clinical Impression of Change (CIBIC-Plus) consists of the holistic impression by the clinician of whether the patient has shown any change since baseline as rated on a seven point sale (marked, moderate, mild improvement, no change, or marked, moderate, mild decline). The Global Deterioration Scale rates clinically identifiable stages of dementia. […] The GDS test provides a description of the key features of AD progression. […] The GDS is calculated as the average of scores related to the performance in the following areas of attention and concentration, recent memory, past memory, orientation, and functioning and self care.
# [5] = test system: lipid peroxidation; assay: clinical trial: lipid peroxidation in the CSF (TBARS); assay type: in vivo, human
# Experimental: In order to assess the antioxidant properties of probucol we analyzed lipid peroxidation levels in the CSF of patients before and after one month of treatment with probucol (one month). In vitro lipid peroxidation was measured according to the method of Ohkawa et al. (Anal. Biochem., 95:351-358 (1979)) with some modifications. Briefly, cerebrospinal fluid samples from Alzheimer's disease patients were prepared in 20 volumes of phosphate buffer (pH=7) (95% N2, 5% CO2) with a Teflon homogenizer. After centrifugation (1000 g, 10 min., 2° C.), the supernatant was precipitated with trichloroacetic acid (72%) according to Brown et al. (Anal. Biochem., 189:136-139 (1989)). This procedure removed material such as non-lipid-derived malondialdehyde (MDA) that could interfere with lipid peroxidation measurement. After precipitation with trichloracetic acid and centrifugation (10000 g, 15 min., 2° C.), 100 μl of the supernatant containing human brain homogenates was used to measure MDA levels. These supernatants were incubated with 20 μl of SDS 10%, 150 μl of acetic acid 20% (pH 3.5), and 150 μl of thiobarbituric acid (TBA) (0.6% in 0.05 N NaOH) and heated at 100° C. for 60 min. This step was performed under a controlled atmosphere (95% N^2, 5% CO^2) in sealed vials to avoid formation of MDA during heating. At the end of the incubation, the reaction was stopped at 4° C. The MDA-TBA complex of TBARS (thiobarbituric acid reactive substances) was then extracted with 300 μl of butanol/pyridine (15:1) by strong shaking (for 30 sec.) followed by centrifugation (1000 g, 10 min., 4° C.).
# [6] = average of patients, baseline average 66.8
# [7] = individual AD patient, 117 is the best possible score
# [8] = average of patients, baseline average 4.7
compound,measurement,setting,value
CC(C)(Sc1cc(C(C)(C)C)c(O)c(C(C)(C)C)c1)Sc1cc(C(C)(C)C)c(O)c(C(C)(C)C)c1 [probucol],"ADAS-Cog (117 point scale) score, 3 months, Average",[1]; [6],65.6
same,"ADAS-Cog (117 point scale) score, 6 months, Average",[1]; [6],68.1
same,"ADAS-Cog (117 point scale) score, 3 months",[1]; [7],73 (2×) and 51 and 63 (3×) and 83 and 56
same,"ADAS-Cog (117 point scale) score, 6 months",[1]; [7],74 and 49 and 82 (2×) and 63 and 58 and 72 and 65
same,"number of patients that appeared to stabilize or improve, ADAS-Cog (117 point scale)","[1]; six month treatment, eight patients",five
same,"[β amyloid 1-40] in the CSF, % change","[2]; 1 month as a percentage of the baseline value, individual AD patient",345% and 108% and 100% and 241% and 105% and 107% and 979% and 2157%
same,"[β amyloid 1-40] in the CSF, 1 month","[2]; individual AD patient, average of triplicate assays",3.44 and 3.95 and 4.96 and 7.55 and 3.26 and 3.51 and 5.35 and 2.16
same,levels of β-amyloid in the CSF,"[2]; one month of treatment, Alzheimer's patients, β-amyloid 1-40 and 1-42",overall increase
same,extracellular amount of ApoE,"[3]; 1 nM, 24 hours post dosing, versus EtOH control",dramatically increased
same,extracellular ApoE with increasing concentrations,[3]; 100 nM and 10 uM versus 1 nM,Further increases
same,amount of ApoE in the media at 48 hours versus 24 hours,[3]; 48 hours compared with 24 hours of incubation,less
same,patient symptoms on the Global Deterioration Scale,[4]; at three and six months,relative stabilization
same,"Global Deterioration Scale, 3 months, Average",[4]; [8],4.8
same,"Global Deterioration Scale, 6 months, Average",[4]; [8],5.3
same,"Global Deterioration Scale, 3 months",[4]; individual AD patient,5 (2×) and 7 and 5.5 and 4.5 and 1.5 and 8 and 3.25 and 3.5
same,"Global Deterioration Scale, 6 months",[4]; individual AD patient,6.5 and 7 and 5 and 6 and 1 and 8 and 3.5 and 5.5
same,"Lipid Peroxidation, Change (% Baseline), average","[5]; 1 month, average for eight patients",100.9 % Baseline
same,"Lipid Peroxidation, Change (% baseline)","[5]; 1 month, individual AD patient",100.3 % baseline and 97.4 % baseline and 94.8 % baseline and 97.5 % baseline and 104.2 % baseline and 92.8 % baseline and 103.8 % baseline and 116.1 % baseline
same,"Lipid Peroxidation, 1 month","[5]; individual AD patient, average of 4-6 determinations",0.705 Fluorescence Units and 0.686 Fluorescence Units and 0.687 Fluorescence Units and 0.692 Fluorescence Units and 0.744 Fluorescence Units and 0.691 Fluorescence Units and 0.731 Fluorescence Units and 0.824 Fluorescence Units
